What is called pIC50 is the negative decadic logarithm of the IC50, by convention in mol/L.

Structures are written as SMILES. pIC50: −log10 of the molar value. Calls of active or inactive are those of the source. The calls are words filed in the database; no cut-off is given here.

The subject of assay [1] is MDA-MB-468. In words: Effect on STAT3 protein level in human MDA-MB-468 cells after 24 hrs by Western blot analysis. Type of assay: functional, cell-based. On the technique in general: In western blotting, separated proteins are transferred to a membrane and probed.
Assay [2] has as its target Signal transducer and activator of transcription 3 (Homo sapiens) (UniProt P40763). Kind of assay: Inhibition of STAT3 expressed in human HeLa cells after 24 hrs by renilla dual-luciferase reporter gene assay. It is filed as cell-based. For orientation: A reporter such as luciferase makes a cellular process visible.
Assay [3] deals with MDA-MB-468. Kind of assay: Cytotoxicity against human MDA-MB-468 cells assessed as cell viability after 24 hrs by WST1 assay. Type of assay: functional, cell-based. (Formazan colour is commonly taken as a measure of viable cells.)
Another assay has as its system DU-145. Kind of assay: Cytotoxicity against human DU145 cells assessed as cell viability after 24 hrs by WST1 assay. It is filed as functional, cell-based.
For another assay, the system named is MCF7. Kind of assay: Cytotoxicity against human MCF7 cells assessed as cell viability at 10 to 500 nM after 24 hrs by WST1 assay. It is filed as functional, cell-based.
The subject of the next assay is HCT-116. Kind of assay: Cytotoxicity against human HCT116 cells assessed as cell viability at 10 to 500 nM after 24 hrs by WST1 assay. It is filed as functional, cell-based.
Assay [4] concerns the target Signal transducer and activator of transcription 3 (Homo sapiens) (UniProt P40763). In words: Inhibition of STAT3 phosphorylation at Tyr705 in human MDA-MB-468 cells after 24 hrs by Western blot analysis. Type of assay: cell-based.
For assay [5] the target is unchanged. In words: Suppression of STAT3 mediated Mcl-1 expression in human MDA-MB-468 cells assessed as complete inhibition at 200 nM by immunoblotting assay. Type of assay: cell-based.
Assay [6] has the same target. In words: Suppression of STAT3 mediated Bcl-XL expression in human MDA-MB-468 cells assessed as complete inhibition at 200 nM by immunoblotting assay. It is filed as cell-based.
Assay [7] has the same target. In words: Inhibition of translocation of STAT3 into nucleus in human MDA-MB-468 cells at 200 nM after 24 hrs […] by immunoblotting method. Type of assay: cell-based.
Assay [8] shares this target. Kind of assay: Suppression of STAT3 mediated cyclinD1 expression in human MDA-MB-468 cells at G0/G1 phase by immunoblotting assay. It is filed as cell-based.
Assay [9] concerns MDA-MB-468. In words: Induction apoptosis in human MDA-MB-468 cells assessed as procaspase-3-mediated PARP cleavage after 24 hrs by Western blotting method. It is filed as functional, cell-based.
Assay [10] has as its system MDA-MB-468. Kind of assay: Cell cycle arrest in human MDA-MB-468 cells assessed as accumulation at G0/G1 phase at 50 nM after 24 hrs using propidium iodide staining by FACS flow cytometry (reference value: 49.13%). Type of assay: functional.
For assay [11], the system named is MDA-MB-468. Kind of assay: Cell cycle arrest in human MDA-MB-468 cells assessed as accumulation at S phase at 50 nM after 24 hrs using propidium iodide staining by FACS flow cytometry (reference value: 12.46%). It is filed as functional.
The test system of assay [12] is MDA-MB-468. In words: Cell cycle arrest in human MDA-MB-468 cells assessed as accumulation at G2/M phase at 50 nM after 24 hrs using propidium iodide staining by FACS flow cytometry (reference value: 31.39%). It is filed as functional.
For assay [13], the system named is MDA-MB-468. In words: Cell cycle arrest in human MDA-MB-468 cells assessed as accumulation at subG1 phase at 50 nM after 24 hrs using propidium iodide staining by FACS flow cytometry (reference value: 7.01%). Type of assay: functional.
Assay [14] has as its system MDA-MB-468. In words: Cell cycle arrest in human MDA-MB-468 cells assessed as accumulation at G0/G1 phase at 200 nM after 24 hrs using propidium iodide staining by FACS flow cytometry (reference value: 49.13%). It is filed as functional.
Assay [15] has as its system MDA-MB-468. In words: Cell cycle arrest in human MDA-MB-468 cells assessed as accumulation at S phase at 200 nM after 24 hrs using propidium iodide staining by FACS flow cytometry (reference value: 12.46%). Type of assay: functional.
Assay [16] concerns MDA-MB-468. In words: Cell cycle arrest in human MDA-MB-468 cells assessed as accumulation at G2/M phase at 200 nM after 24 hrs using propidium iodide staining by FACS flow cytometry (reference value: 31.39%). Type of assay: functional.
For assay [17], the system named is MDA-MB-468. Kind of assay: Cell cycle arrest in human MDA-MB-468 cells assessed as accumulation at subG1 phase at 200 nM after 24 hrs using propidium iodide staining by FACS flow cytometry (reference value: 7.01%). Type of assay: functional.
Assay [18] concerns MDA-MB-468. Kind of assay: Cell cycle arrest in human MDA-MB-468 cells assessed as accumulation at G0/G1 phase at 500 nM after 24 hrs using propidium iodide staining by FACS flow cytometry (reference value: 49.13%). Type of assay: functional.
In assay [19] the test system is MDA-MB-468. Kind of assay: Cell cycle arrest in human MDA-MB-468 cells assessed as accumulation at S phase at 500 nM after 24 hrs using propidium iodide staining by FACS flow cytometry (reference value: 12.46%). Type of assay: functional.
Assay [20] has as its system MDA-MB-468. Kind of assay: Cell cycle arrest in human MDA-MB-468 cells assessed as accumulation at G2/M phase at 500 nM after 24 hrs using propidium iodide staining by FACS flow cytometry (reference value: 31.39%). It is filed as functional.
In assay [21] the test system is MDA-MB-468. In words: Cell cycle arrest in human MDA-MB-468 cells assessed as accumulation at subG1 phase at 500 nM after 24 hrs using propidium iodide staining by FACS flow cytometry (reference value: 7.01%). Type of assay: functional.
Assay [22] addresses Signal transducer and activator of transcription 3 (Homo sapiens) (UniProt P40763). Kind of assay: Inhibition of STAT3 phosphorylation at Tyr705 in human MDA-MB-468 cells at 500 nM after 24 hrs by Western blot analysis. Type of assay: cell-based.
For assay [23] the target is unchanged. Kind of assay: Inhibition of STAT3 phosphorylation at Ser727 in human MDA-MB-468 cells after 24 hrs by Western blot analysis. Type of assay: cell-based.
The target is the same in assay [24]. Kind of assay: Inhibition of translocation of STAT3 into nucleus in human MDA-MB-468 cells assessed as localization in cytoplasm at 200 nM after 24 hrs […] by Western blotting method. Type of assay: cell-based.
Assay [25] has the same target. Kind of assay: Suppression of STAT3 mediated Mcl-1 expression in human MDA-MB-468 cells by immunoblotting assay. Type of assay: cell-based.
The target is the same in assay [26]. In words: Suppression of STAT3 mediated VEGF expression in human MDA-MB-468 cells by immunoblotting assay. It is filed as cell-based.
Assay [27] shares this target. In words: Suppression of STAT3 mediated cyclinD1 expression in human MDA-MB-468 cells by immunoblotting assay. Type of assay: cell-based.
For assay [28] the target is unchanged. Kind of assay: Suppression of STAT3 mediated Bcl-XL expression in human MDA-MB-468 cells by immunoblotting assay. Type of assay: cell-based.
For assay [29] the target is unchanged. In words: Suppression of STAT3 mediated survivin expression in human MDA-MB-468 cells by immunoblotting assay. It is filed as cell-based.

Signal transducer and activator of transcription 3 (Homo sapiens), sequence (P40763 whole entry): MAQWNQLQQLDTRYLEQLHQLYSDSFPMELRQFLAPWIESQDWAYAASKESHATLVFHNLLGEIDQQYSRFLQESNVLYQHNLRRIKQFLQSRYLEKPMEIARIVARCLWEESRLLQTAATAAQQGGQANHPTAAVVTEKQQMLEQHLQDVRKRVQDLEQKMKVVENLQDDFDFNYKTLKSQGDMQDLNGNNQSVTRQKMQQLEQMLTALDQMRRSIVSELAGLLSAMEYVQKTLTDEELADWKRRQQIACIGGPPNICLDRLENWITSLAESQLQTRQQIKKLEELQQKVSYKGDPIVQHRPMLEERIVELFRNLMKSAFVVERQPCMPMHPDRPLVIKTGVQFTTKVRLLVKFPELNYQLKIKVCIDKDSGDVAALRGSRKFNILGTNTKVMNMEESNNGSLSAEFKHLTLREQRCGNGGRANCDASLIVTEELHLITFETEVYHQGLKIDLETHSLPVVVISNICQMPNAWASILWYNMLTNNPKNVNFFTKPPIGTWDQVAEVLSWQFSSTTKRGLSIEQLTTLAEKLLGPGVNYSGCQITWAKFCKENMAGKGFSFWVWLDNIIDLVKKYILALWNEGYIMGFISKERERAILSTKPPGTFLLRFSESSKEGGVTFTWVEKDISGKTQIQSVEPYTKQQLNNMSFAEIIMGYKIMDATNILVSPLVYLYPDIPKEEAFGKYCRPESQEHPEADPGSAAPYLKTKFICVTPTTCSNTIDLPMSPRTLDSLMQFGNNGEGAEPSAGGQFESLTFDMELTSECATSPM

Take `CC[C@@]1(O)CCc2c(O)c3c(c(O)c2[C@H]1O[C@H]1C[C@H](N(C)C)[C@@H](O[C@H]2C[C@H](O)[C@@H](O[C@H]4CC[C@H](O)[C@H](C)O4)[C@H](C)O2)[C@H](C)O1)C(=O)c1cccc(O)c1C3=O`: the outcome with MDA-MB-468 [1], with MDA-MB-468 [3], in the assay with DU-145, in the assay with MCF7 and in the assay on HCT-116 was inactive. Also, the inhibition entry in assay [2] and in [4] was “inactive” throughout.
In the case of `CO[C@H](C(=O)[C@@H](O)[C@@H](C)O)[C@@H]1Cc2cc3cc(O[C@H]4C[C@@H](O[C@@H]5C[C@@H](O)[C@H](O)[C@@H](C)O5)[C@H](O)[C@@H](C)O4)c(C)c(O)c3c(O)c2C(=O)[C@H]1O[C@H]1C[C@@H](O[C@@H]2C[C@@H](O)[C@@H](O[C@@H]3C[C@](C)(O)[C@H](O)[C@@H](C)O3)[C@@H](C)O2)[C@H](O)[C@@H](C)O1`, the inhibition entry in assay [2] was “inactive”.
For the molecule `CC[C@@]1(O)C[C@H](O[C@H]2C[C@H](N(C)C)[C@@H](O[C@H]3C[C@H](O)[C@@H](O[C@H]4CC[C@H](O)[C@H](C)O4)[C@H](C)O3)[C@H](C)O2)c2c(O)c3c(c(O)c2[C@H]1O[C@H]1C[C@H](N(C)C)[C@@H](O[C@H]2CC[C@H](O[C@H]4CC[C@H](O)[C@H](C)O4)[C@H](C)O2)[C@H](C)O1)C(=O)c1cccc(O)c1C3=O` [COSMOMYCIN C], the result (in [5]; in [6]; in assay [7]; in assay [8]; with MDA-MB-468 [9]) was Active. Further, the result in the assay on MDA-MB-468 [1], in the assay on MCF7 and in the assay with HCT-116 was inactive. Besides, the Activity in the assay on MDA-MB-468 [10] is on record as 54.64%; with MDA-MB-468 [11], 10.52%; in the assay on MDA-MB-468 [12], 26.91%; with MDA-MB-468 [13], 7.93%; in the assay with MDA-MB-468 [14], 59.53%; in the assay on MDA-MB-468 [15], 8.82%. In addition, the Activity in the assay with MDA-MB-468 [16] is 22.18%; with MDA-MB-468 [17], 9.47%; in the assay on MDA-MB-468 [18] it was 49.9%; with MDA-MB-468 [19], 8.78%; in the assay with MDA-MB-468 [20], 15.81%; in the assay on MDA-MB-468 [21], 25.52%. For the same molecule, the Activity result (in the assay with MDA-MB-468 [3]; in the assay on DU-145; in assay [25]; in assay [26]; in assay [27]; in assay [28]) was “Dose-dependent effect” throughout. For the same molecule, in assay [29], the Activity result was “Dose-dependent effect”. The inhibition result in [2] and in assay [4] was “Dose-dependent effect” in each case. Further, the pIC50 in the assay on MDA-MB-468 [3] (MDA-MB-468, 24 h) is 6.68. In addition, the inhibition result in assay [22] and in [24] was “Active” in each case. For the same molecule, the inhibition entry in assay [23] was “inactive”.

Source of the values: ChEMBL document CHEMBL2150876, “Cosmomycin C inhibits signal transducer and activator of transcription 3 (STAT3) pathways in MDA-MB-468 breast cancer cell” (Bioorg Med Chem, 2011).
